Assay results reported in patent publication US9470680B2, “Fluorescence-based approach to monitor release factor-catalyzed termination of protein synthesis” (THE TRUSTEES OF COLUMBIA UNIVERSITY IN THE CITY OF NEW YORK, priority 2011, dated 2016).

Legend:
[1] = test system: polypeptide release at a stop codon; conditions: cited from earlier work
[2] = test system: RC2 (release complex with L1(Cy5) ribosomes and (Cy3)tRNAPhe); experiment: L1-tRNA smFRET monitoring the GS1/GS2 equilibrium; format: biochemical, Escherichia coli
Procedure: RCs assembled on a biotinylated mRNA were immobilized on the surface of a streptavidin-derivatized quartz flow cell and visualized with single-molecule resolution using a total internal reflection fluorescence microscope. RC surface immobilization strategy and lab-built total internal reflection fluorescence (TIRF) microscope are described in FIG. 10. Experiments were performed at room temperature in Tris-polymix buffer at 15 mM Mg(OAc)2, supplemented with an oxygen-scavenging system (300 μg ml^−1 glucose oxidase, 40 μg ml^−1 catalase and 1% (w/v)(β-D-glucose). In addition, 1 mM 1,3,5,7-cyclooctatetraene (Aldrich) and p-nitrobenzyl alcohol (Fluka) was added to all buffers in order to quench a long-lived, non-fluorescent triplet state sampled by the Cy5 fluorophore. The oxygen-scavenging and triplet state quencher systems have no effect on the in vitro translation system used herein (Gonzalez et al. 2007; Blanchard et al. 2004b).
(§1) Quartz microscope slides were cleaned and subsequently derivatized with a mixture of polyethyleneglycol (PEG) and PEG-biotin in order to passivate the surface (Blanchard et al. 2004b). Just prior to data acquisition, slides were treated with streptavidin, allowing immobilization of ribosomal RCs bound to an mRNA with a 3′-biotinylated DNA oligonucleotide pre-annealed to its 5′ end. smFRET data was collected with a wide-field, prism-based total internal reflection fluorescence microscope utilizing a 150 mW diode-pumped 532 nm laser (CrystaLaser) operating at 24 mW for Cy3 excitation, a 25 mW diode-pumped 643 nm laser (CrystaLaser) operating at 19 mW for direct Cy5 excitation, a Dual-View multi-channel imaging system (MAG Biosystems) for separation of Cy3 and Cy5 fluorescence emissions, and a back-thinned charge-coupled device camera (Cascade II, Princeton Instruments) with 2-pixel binning and 50 ms exposure time for detection. Single ribosomal RCs were identified by characteristic single-fluorophore fluorescence intensities as well as single-step fluorophore photobleaching.
Raw intensity data was analyzed with the Metamorph software suite (Molecular Devices). […] For L1-tRNA smFRET experiments with RC2, excited Cy5 was directly with the 643 nm laser in frame one, followed by excitation with the 532 nm laser in order to generate FRET. […] Acquired trajectories composed of a pair of Cy3 and Cy5 intensity versus time trajectories from single ribosomes, were then visually inspected. […] For all RRF and RF3(GDPNP) datasets, an automated selection algorithm was first utilized before visual inspection of the trajectories. This algorithm averages each trajectory over three data points, differentiates intensity with respect to time, and calculates the correlation coefficient for each Cy3/Cy5 pair. Trajectories with a negative correlation coefficient (anti-correlated) were kept for further analysis. Finally, all trajectories were required to last at least 0.5 seconds (i.e. 10 frames) before photobleaching of either fluorophore.
Cy3 and Cy5 fluorescence intensities were baseline corrected in each trajectory by generating one-dimensional Cy3 and Cy5 fluorescence intensity histograms from trajectories within each dataset, determining the intensity value of the most populated bin (which represents background noise intensity after fluorophore photobleaching), and then subtracting this value from all Cy3 and Cy5 intensity data points within every trajectory. Due to the imperfect performance of emission filters, the Cy3 signal bleed-through into the Cy5 channel was experimentally determined to be ˜9%. The Cy5 intensity of each trajectory was corrected using this bleed-through coefficient. smFRET values for each Cy3/Cy5 data point were calculated using ICy5/(ICy3+ICy5), where ICy3 and ICy5 are the intensities of Cy3 and Cy5, respectively.
The rates of GS1→GS2 (kGS1→GS2) and G52→GS1 (kGS2→GS1) transitions for each dataset were determined as follows. […]

RF1-bound RCs = experiment: RF3 activity assay (RF3-catalyzed RF1 recycling, multiple-turnover peptide release); format: biochemical, Escherichia coli; conditions: limiting RF1; GDP, GTP or GDPNP; 10 minutes
Procedure: RF3 activity was tested by following the extent of peptide release in cases where RF1 was limiting and RF3 was required to actively recycle RF1, thereby enabling multiple turnover (Zavialov et al. 2001). Reactions were performed as described, with two exceptions: when present, GDP, GTP, or GDPNP was added to the RF1/RF3 mix during the 1 minute pre-incubation, and upon adding the RF1/RF3/nucleotide mix to RCs, reactions were incubated for 10 minutes.

vacant ribosomes = conditions: in the absence of mRNA or tRNAs; read-out: Kd of RRF binding to vacant ribosomes; cited from earlier work
[3] = molecular target: GS2 conformation of the PoTC (RC2Pmn); experiment: RRF titration, binding isotherm fit of GS2/GS1 peak area ratio; parameters: species or system Escherichia coli
Excerpt: (§2) To more quantitatively probe the subtle effect of RRF on the GS1⇄GS2 equilibrium, one-dimensional smFRET histograms of the entire population of trajectories were plotted as a function of RRF concentration (FIG. 24). The areas under the peaks centered at 0.16 and 0.76 FRET report the equilibrium populations of GS1 and GS2, respectively. […] Assuming that RRF can bind to both GS1 and GS2, a plot of the GS2/GS1 peak area ratio (Keq) vs. RRF concentration can be fit by the following binding isotherm in order to determine the equilibrium dissociation constants for RRF binding to GS1 (Kd,GS1) and GS2 (Kd,GS2) (Sarkar et al. 2007):
(§3) [formula] where C is the GS2/GS1 peak area ratio in the absence of RRF.

[4] = molecular target: GS1 conformation of the PoTC (RC2Pmn); experiment: as above; parameters: species or system Escherichia coli
Excerpt: as §2, §3

[5] = test system: RC1 (release complex, fMet-Phe-(Cy3)tRNAPhe in the P site, stop codon at the A site); experiment: RF1-tRNA smFRET between P-site (Cy3)tRNAPhe and (Cy5)RF1 bound at the A site; format: binding, Escherichia coli; conditions: UAA-U stop codon, in the presence of paromomycin (100 μM per FIG. 11)
Excerpt: RCs assembled on a biotinylated mRNA were immobilized on the surface of a streptavidin-derivatized quartz flow cell and visualized with single-molecule resolution using a total internal reflection fluorescence microscope. RC surface immobilization strategy and lab-built total internal reflection fluorescence (TIRF) microscope are described in FIG. 10. […]
as §1, with “Single ribosomal RCs were identified by characteristic single-fluorophore fluorescence intensities as well as single-step fluorophore photobleaching.” left out
Raw intensity data was analyzed with the Metamorph software suite (Molecular Devices). […]

[6] = RC2 pre-treated with puromycin (RC2Pmn), no factors, corrected rate
[7] = RC2Pmn in the presence of 1 μM factor
[8] = RC2RF1 in the presence of 1 μM RF1, RF3(GDP) and 1 mM GTP
[9] = RC2RF1 in the presence of 1 μM RF1 and 1 μM RF3 form, no GTP
[10] = RC2Pmn, 0-1.5 μM RRF (near Kd,GS2)

NC[C@@H]1O[C@H](O[C@H]2[C@@H](O)[C@H](O[C@@H]3[C@@H](O)[C@H](N)C[C@H](N)[C@H]3O[C@H]3O[C@H](CO)[C@@H](O)[C@H](O)[C@H]3N)O[C@@H]2CO)[C@H](N)[C@@H](O)[C@@H]1O [paromomycin]
inhibition of polypeptide release at a stop codon [1]: very strongly inhibits polypeptide release at a stop codon

COc1ccc(C[C@H](N)C(=O)N[C@H]2[C@@H](O)[C@H](n3cnc4c(N(C)C)ncnc43)O[C@@H]2CO)cc1 [puromycin, reference compound]
trajectories fluctuating between 0.16 and 0.76 FRET ([2]; RC2 pre-treated with puromycin (RC2Pmn), no factors): ~63% | kGS1→GS2 [2, 6]: 0.52 ± 0.03 s⁻¹ | kGS2→GS1 [2, 6]: 1.36 ± 0.03 s⁻¹

RF1: Escherichia coli class 1 release factor 1, purified, co-expressed with PrmC methyltransferase
trajectories fluctuating between 0.16 and 0.76 FRET [2, 7]: 9% | trajectories stably centered at / sampling only 0.16 FRET (GS1) [2, 7]: 85% | trajectories stably centered at / sampling only 0.76 FRET (GS2) [2, 7]: 6% | trajectories fluctuating between 0.16 and 0.76 FRET ([2]; RC2 in the presence of 1 μM factor): 2% | trajectories stably centered at 0.16 FRET (GS1) ([2]; RC2 in the presence of 1 μM factor (87% without RF1)): 98%

RF3(GDP): RF3 in the GDP form
kGS2→GS1 relative to RC2Pmn in the absence of RF1, RF3 and guanine nucleotide ([2]; RC2RF1+RF3(GDP)+GTP versus 1.36±0.03 s^−1): ~3 fold | kGS2→GS1 ([2]; RC2RF1+RF3(GDP)+GTP, 1 μM RF1, 10 μM GDP and 1 mM GTP, corrected rate, lower limit): ≥ 3.7 ± 0.6 s⁻¹ | trajectories exhibiting fluctuations between GS1 and GS2 [2, 8]: 42% | trajectories stably centered at 0.16 FRET (GS1) [2, 8]: 58% | trajectories fluctuating between 0.16 and 0.76 FRET [2, 9]: 2% | trajectories stably centered at 0.16 FRET (GS1) [2, 9]: 98%

RF3(GDPNP): RF3 with GDPNP, a non-hydrolyzable GTP analog
trajectories fluctuating between 0.16 and 0.76 FRET [2, 7]: 22% | trajectories stably centered at / sampling only 0.16 FRET (GS1) [2, 7]: 5% | trajectories stably centered at / sampling only 0.76 FRET (GS2) [2, 7]: 73%

RF3: Escherichia coli class II release factor, a GTPase
nucleotide dependence of RF3-catalyzed RF1 recycling (RF1-bound RCs): exhibits the proper nucleotide dependence in recycling RF1

RRF: Escherichia coli ribosome recycling factor
kGS1→GS2 relative to free RC2Pmn ([2]; 50 μM RRF versus 0.52±0.03 s^−1): 1.6 fold | trajectories fluctuating between 0.16 and 0.76 FRET [2, 7]: 70% | trajectories stably centered at / sampling only 0.16 FRET (GS1) [2, 7]: 7% | trajectories stably centered at / sampling only 0.76 FRET (GS2) [2, 7]: 23% | kGS1→GS2 as a function of RRF concentration [2, 10]: remain unchanged | kGS2→GS1 as a function of RRF concentration [2, 10]: decreases linearly | kGS1→GS2 ([2]; RC2Pmn, 50 μM RRF): 0.83 ± 0.06 s⁻¹ | Kd (vacant ribosomes): 200 to 600 nM | Kd ([3]; RC2Pmn + RRF titration): 900 ± 300 nM | binding to GS2 over GS1 ([3]; from Kd,GS2 and Kd,GS1): greater than an order of magnitude tighter binding to GS2 over GS1 | Kd [4]: 12000 ± 2000 nM

S192C: single-cysteine S192C RF1 (PVT domain) labeled with Cy5
lifetime of the FRET state (dwell time analysis) [5]: < 0.38 ± 0.02 s

nucleotide-free RF3: RF3 without guanine nucleotide
trajectories fluctuating between 0.16 and 0.76 FRET [2, 9]: 1% | trajectories stably centered at 0.16 FRET (GS1) [2, 9]: 99%
